The results in this text go back to US10738015B2, “1,3-diaza-spiro-[3.4]-octane derivatives” (priority 2017, dated 2020).

Molecules are shown by their SMILES. Where two headings read alike, the source gives them in different places.

Test [1] deals with human nociceptin/orphanin FQ peptide (hNOP) receptor (Homo sapiens (Human), UniProt P41146). As to the kind of experiment: hNOP receptor binding assay (SPA). As for the experimental part:
Human Nociceptin/Orphanin FQ Peptide (hNOP) Receptor Binding Assay
The hNOP receptor binding assay was performed as homogeneous SPA-assay (scintillation proximity assay) using the assay buffer 50 mM TRIS-HCl, 10 mM MgCl2, 1 mM EDTA (pH 7.4). The final assay volume (250 μl/well) included 0.5 nM of [leucyl-^3H]nociceptin as ligand (PerkinElmer Life Sciences. Inc. Boston, Mass. USA) and either test compound in dilution series or 1 μM unlabelled nociceptin for determination of unspecific binding. The test compound was diluted with 25% DMSO in H2O to yield a final 0.5% DMSO concentration which also served as a respective vehicle control. The assay was started by adding wheat germ agglutinin coated SPA beads (GE Healthcare UK Ltd. Buckinghamshire. UK) which had been preloaded with hNOP receptor membranes (PerkinElmer Life Sciences. Inc. Boston, Mass. USA). After incubation for 60 minutes at RT and centrifugation for 20 minutes at 500 rpm the signal rate was measured by means of a 1450 Microbeta Trilux ß-counter (PerkinElmer Life Sciences/Wallac. Turku. Finland). Half-maximal inhibitory concentration (IC50) values reflecting 50% displacement of [^3H]nociceptin-specific receptor binding were calculated by nonlinear regression analysis and Ki values were calculated by using the Cheng-Prusoff equation. (Cheng and Prusoff. 1973).

For test [2], the target named is human mu-opioid peptide (hMOP) receptor (Homo sapiens (Human), UniProt P35372). Put plainly: hMOP receptor binding assay (SPA). As for the experimental part:
Human Mu-Opioidpeptide (hMOP) Receptor Binding Assay
The hMOP receptor binding assay was performed as homogeneous SPA-assay (scintillation proximity assay) using the assay buffer 50 mM TRIS-HCl (pH 7.4) supplemented with 0.052 mg/ml bovine serum albumin (Sigma-Aldrich Co. St. Louis, Mo.). […] The assay was started by adding wheat germ agglutinin coated SPA beads (GE Healthcare UK Ltd. Buckinghamshire. UK) which had been preloaded with hMOP receptor membranes (PerkinElmer Life Sciences. Inc. Boston, Mass. USA).

The mark [3] stands for this setting: Ki, displacement of [leucyl-3H]nociceptin, hNOP receptor membranes, read-out: hNOP Ki [nM] or % inhibition at 1 μM.
[4] abbreviates: Ki, displacement of [3H]naloxone, hMOP receptor membranes, read-out: hMOP Ki [nM] or % inhibition at 1 μM.
[5] abbreviates: read-out: hMOP Ki [nM] or % inhibition at 1 μM.

human mu-opioid peptide (hMOP) receptor, sequence (P35372 whole entry): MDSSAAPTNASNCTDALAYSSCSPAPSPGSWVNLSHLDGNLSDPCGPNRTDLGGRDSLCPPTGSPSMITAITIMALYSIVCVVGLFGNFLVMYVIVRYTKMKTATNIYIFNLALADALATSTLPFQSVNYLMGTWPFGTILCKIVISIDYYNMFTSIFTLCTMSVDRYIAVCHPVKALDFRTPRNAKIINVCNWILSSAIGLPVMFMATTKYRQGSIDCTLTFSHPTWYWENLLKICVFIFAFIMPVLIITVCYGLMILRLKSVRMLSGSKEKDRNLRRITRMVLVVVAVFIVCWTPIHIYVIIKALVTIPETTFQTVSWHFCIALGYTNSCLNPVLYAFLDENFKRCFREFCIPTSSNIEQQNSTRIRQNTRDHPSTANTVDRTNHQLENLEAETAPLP

Take `COc1nc(C#N)ncc1N1C[C@]2(C[C@](c3ccccc3)(N(C)C)C2)N(CC2CCC2)C1=O` [SC-10, cis-5-(5-(cyclobutylmethyl)-2-(dimethylamino)-6-oxo-2-phenyl-5,7-diazaspiro[3.4]octan-7-yl)-4-methoxypyrimidine-2-carbonitrile]: the figures for the Ki in test [1] (setting [3]) and in test [2] (setting [4]) were 2 nM and 157 nM, respectively.

For `COC(C)(C)CN1C[C@]2(C[C@](c3cccc(F)c3)(N(C)C)C2)N(CC2CC2)C1=O` [SC-37, Cis-5-(cyclopropylmethyl)-2-(dimethylamino)-2-(3-fluorophenyl)-7-(2-methoxy-2-methylpropyl)-5,7-diazaspiro[3.4]octan-6-one], the Ki in test [1] (setting [3]) amounted to 37 nM; in test [2], 44 nM.

As to `CN(C)[C@]1(c2cccc(F)c2)C[C@@]2(CN(CCC#N)C(=O)N2CC2CC2)C1` [SC-44, cis-3-(5-(cyclopropylmethyl)-2-(dimethylamino)-2-(3-fluorophenyl)-6-oxo-5,7-diazaspiro[3.4]octan-7-yl)propanenitrile], the Ki in test [1] (setting [3]) was determined as 15 nM; in test [2], 110 nM.

In the case of `Cc1cc(C(F)F)ncc1N1C[C@]2(C[C@](c3cccc(F)c3)(N(C)C)C2)N(CC2CC2)C1=O` [SC-24, Cis-5-(cyclopropylmethyl)-7-(6-(difluoromethyl)-4-methylpyridin-3-yl)-2-(dimethylamino)-2-(3-fluorophenyl)-5,7-diazaspiro[3.4]octan-6-one], the Ki in test [1] (setting [3]) was found to be 23 nM; in test [2] (setting [4]), 1180 nM.

Take `CN(C)[C@]1(c2ccccc2)C[C@]2(CN(CC(N)=O)C(=O)N2CC2CCC2)C1` [SC-8, cis-2-(5-(cyclobutylmethyl)-2-(dimethylamino)-6-oxo-2-phenyl-5,7-diazaspiro[3.4]octan-7-yl)acetamide]: the Ki in test [1] (setting [3]) was determined as 3 nM; in test [2] (setting [4]), 100 nM.

In turn, `COc1nc(C#N)ncc1N1C[C@]2(C[C@](c3ccccc3)(N(C)C)C2)NC1=O` [SC-3, Cis-5-(2-(dimethylamino)-6-oxo-2-phenyl-5,7-diazaspiro[3.4]octan-7-yl)-4-methoxypyrimidine-2-carbonitrile] showed a Ki in test [1] of 370 nM.

Regarding `Cc1cc(C#N)cnc1N1C[C@]2(C[C@](c3cccc(F)c3)(N(C)C)C2)N(CC2CC2)C1=O` [SC-16, Cis-6-(5-(cyclopropylmethyl)-2-(dimethylamino)-2-(3-fluorophenyl)-6-oxo-5,7-diazaspiro[3.4]octan-7-yl)-5-methylnicotinonitrile], the Ki in test [1] (setting [3]) amounted to 31 nM; in test [2] (setting [4]), 1320 nM.

As for `Cc1cc(C(C)(C)O)ccc1N1C[C@]2(C[C@](c3ccccc3)(N(C)C)C2)NC1=O` [SC-21, Cis-2-(dimethylamino)-7-(4-(2-hydroxypropan-2-yl)-2-methylphenyl)-2-phenyl-5,7-diazaspiro[3.4]octan-6-one], the figures for the inhibitory constant (Ki) in test [1] (setting [3]) and in test [2] (setting [4]) were 775 nM and 3580 nM, respectively.

Regarding `COc1nc(C#N)ncc1N1C[C@]2(C[C@@](c3ccccc3)(N(C)C)C2)N(CC2CCC2)C1=O` [SC-11, trans-5-(5-(cyclobutylmethyl)-2-(dimethylamino)-6-oxo-2-phenyl-5,7-diazaspiro[3.4]octan-7-yl)-4-methoxypyrimidine-2-carbonitrile], the Ki in test [1] (setting [3]) was determined as 99 nM; in test [2] (setting [4]) it was 3 nM.

As for `CN(C)[C@]1(c2ccccc2)C[C@@]2(CN(CC(=O)N3CCS(=O)(=O)CC3)C(=O)N2CC2CCC2)C1` [SC-6, Cis-5-(cyclobutylmethyl)-2-(dimethylamino)-7-(2-(1,1-dioxidothiomorpholino)-2-oxoethyl)-2-phenyl-5,7-diazaspiro[3.4]octan-6-one], the affinity in test [1] corresponds to a Ki of 1 nM.

Consider `Cc1cc(C(C)(C)O)ncc1N1C[C@]2(C[C@](c3ccccc3)(N(C)C)C2)NC1=O` [SC-20, Cis-2-(dimethylamino)-7-(6-(2-hydroxypropan-2-yl)-4-methylpyridin-3-yl)-2-phenyl-5,7-diazaspiro[3.4]octan-6-one], for which the inhibition constant Ki is 1160 nM in test [1] (setting [3]) and 5840 nM in test [2] (setting [4]).

With `CN(C)[C@]1(c2ccccc2)C[C@]2(CN(CC(=O)N3CCS(=O)(=O)CC3)C(=O)N2)C1` [SC-4, trans-2-(dimethylamino)-7-(2-(1,1-dioxidothiomorpholino)-2-oxoethyl)-2-phenyl-5,7-diazaspiro[3.4]octan-6-one], the Ki is 860 nM in test [1] (setting [3]) and 15 nM in test [2] (setting [4]).

In the case of `Cc1nc(N2CCOCC2)ncc1N1C[C@]2(C[C@](c3ccccc3)(N(C)C)C2)NC1=O` [SC-12, cis-2-(dimethylamino)-7-(4-methyl-2-morpholinopyrimidin-5-yl)-2-phenyl-5,7-diazaspiro[3.4]octan-6-one], the Ki in test [1] (setting [3]) amounted to 630 nM. Further, in test [2] (setting [5]), the inhibition at 1 µM is 13%.

Take `Cc1cc(N2CCC2)ncc1N1C[C@]2(C[C@](c3ccccc3)(N(C)C)C2)NC1=O` [SC-13, cis-7-(6-(azetidin-1-yl)-4-methylpyridin-3-yl)-2-(dimethylamino)-2-phenyl-5,7-diazaspiro[3.4]octan-6-one]: in test [1] (setting [3]), the Ki amounted to 860 nM. In addition, the inhibition at 1 µM in test [2] (setting [5]) was 18%.

As for `CN(C)[C@]1(c2cccc(F)c2)C[C@@]2(CN(CCC3COC3)C(=O)N2CC2CC2)C1` [SC-47, Cis-5-(cyclopropylmethyl)-2-(dimethylamino)-2-(3-fluorophenyl)-7-[2-(oxetan-3-yl)ethyl]-5,7-diazaspiro[3.4]octan-6-one], the Ki is 9 nM in test [1] (setting [3]) and 44 nM in test [2] (setting [4]).

As for `CN(C)[C@]1(c2ccccc2)C[C@@]2(CN(c3ccc(C4CC4)nc3)C(=O)N2CC2CC2)C1` [SC-34, Cis-5-(cyclopropylmethyl)-7-(6-cyclopropylpyridin-3-yl)-2-(dimethylamino)-2-phenyl-5,7-diazaspiro[3.4]octan-6-one], the Ki came to 17 nM in test [1] (setting [3]) and 50 nM in test [2] (setting [4]).

Regarding `CN(C)[C@]1(c2cccc(F)c2)C[C@@]2(CN(c3ccc(C(C)(C)O)cc3)C(=O)N2CC2CC2)C1` [SC-28, Cis-5-(cyclopropylmethyl)-2-(dimethylamino)-2-(3-fluorophenyl)-7-(4-(2-hydroxypropan-2-yl)phenyl)-5,7-diazaspiro[3.4]octan-6-one], the inhibition constant Ki in test [1] (setting [3]) stood at 46 nM; in test [2] (setting [4]), 78 nM.

In the case of `CN(C)[C@]1(c2ccccc2)C[C@@]2(CN(c3ccc(OC(F)(F)F)cn3)C(=O)N2CC2CC2)C1` [SC-32, Cis-5-(cyclopropylmethyl)-2-(dimethylamino)-2-phenyl-7-(5-(trifluoromethoxy)pyridin-2-yl)-5,7-diazaspiro[3.4]octan-6-one], the Ki was 36 nM in test [1] (setting [3]) and 100 nM in test [2] (setting [4]).

In the case of `CN(C)[C@]1(c2cccc(F)c2)C[C@@]2(CN(CC3(O)CCC3)C(=O)N2CC2CC2)C1` [SC-42, Cis-5-(cyclopropylmethyl)-2-(dimethylamino)-2-(3-fluorophenyl)-7-[(1-hydroxycyclobutyl)methyl]-5,7-diazaspiro[3.4]octan-6-one], the figures for the inhibition constant Ki in test [1] (setting [3]) and in test [2] (setting [4]) were 21 nM and 125 nM, respectively.

As for `CN(C)[C@]1(c2cccc(F)c2)C[C@@]2(CN(c3ccc(OC(F)(F)F)cn3)C(=O)N2CC2(F)COC2)C1` [SC-23, Cis- -2-(dimethylamino)-5-((3-fluorooxetan-3-yl)methyl)-2-(3-fluorophenyl)-7-(5-(trifluoromethoxy)pyridin-2-yl)-5,7-diazaspiro[3.4]octan-6-one], the Ki was found to be 25 nM in test [1] (setting [3]) and 545 nM in test [2] (setting [4]).

Consider `CN(C)[C@]1(c2cccc(F)c2)C[C@@]2(CN(c3ccc(OC(F)(F)F)cn3)C(=O)N2CC2CC2)C1` [SC-18, Cis-5-(cyclopropylmethyl)-2-(dimethylamino)-2-(3-fluorophenyl)-7-(5-(trifluoromethoxy)pyridin-2-yl)-5,7-diazaspiro[3.4]octan-6-one], for which the Ki stood at 55 nM in test [1] (setting [3]) and 805 nM in test [2] (setting [4]).

On to `CN(C)[C@]1(c2ccccc2)C[C@@]2(CN(c3cncc(C(F)(F)F)c3)C(=O)N2CC2CC2)C1` [SC-39, Cis-5-(cyclopropylmethyl)-2-(dimethylamino)-2-phenyl-7-[5-(trifluoromethyl)pyridin-3-yl]-5,7-diazaspiro[3.4]octan-6-one], for which the Ki turned out to be 5 nM in test [1] (setting [3]) and 48 nM in test [2] (setting [4]).

Take `Cc1cc(C#N)ncc1N1C[C@]2(C[C@](c3cccc(F)c3)(N(C)C)C2)N(CC2CC2)C1=O` [SC-15, cis-5-(5-(cyclopropylmethyl)-2-(dimethylamino)-2-(3-fluorophenyl)-6-oxo-5,7-diazaspiro[3.4]octan-7-yl)-4-methylpicolinonitrile]: the Ki in test [1] came out at 13 nM; in test [2] (setting [4]) it was 1330 nM.

Regarding `CN(C)[C@]1(c2ccccc2)C[C@@]2(CN(CC(N)=O)C(=O)N2)C1` [SC-1, Cis-2-(2-(dimethylamino)-6-oxo-2-phenyl-5,7-diazaspiro[3.4]octan-7-yl)acetamide], in test [1] (setting [3]), the inhibitory constant (Ki) amounted to 200 nM. In addition, the inhibition at 1 µM in test [2] (setting [5]) is 19%.

As a reminder, the Ki is the equilibrium dissociation constant of an inhibitor or competing ligand from its target. For orientation: inhibition means the relative decrease from the control value, in per cent.
